Test results as given in patent publication US10722484B2, “Methods of cancer treatment” (K-Gen, Inc., priority 2016, dated 2020).

Legend:
[1] = tested on: A549 lung cancer cell line; test: Combination viability/proliferation assays (384-well IC50 ratio, 96-well MacSynergy II); type: cell-based
[2] = tested on: Panc2.13; test: Combination viability/proliferation assays; type: cell-based
Protocol: (§1) A 96-well MacSynergy II format for combination test was also used. […] The analysis was done with the SQRT(Data) scale and the four parameter Hill curve was fitted using XLfit5.1 (the MacSynergy II Excel Spreadsheet) for the inhibition data. Synergy (positive number) or Antagonism (negative number) volumes were calculated. […] Three-dimensional MacSynergy II graphs were generated where positive values indicated synergism and negative values indicated antagonism.

[3] = tested on: Panc1; test: Combination viability/proliferation assays; type: cell-based; conditions: for Combination effect, Panel: K102: agent in combination with K102
Protocol: as §1

[4] = tested on: colon cancer cell line Colo205; test: MacSynergy combination experiments; type: cell-based
Protocol: as §1

[5] = tested on: MV-4-11 human myelomonocytic leukemia; test: Combination viability/proliferation assays; conditions: K101A (0.1 μM) or K102 (0.01 μM)
Protocol: (§2) Briefly, cells at density of 1,000-10,000 cells/well in 96-well plates or 200-1600 cells/well in 384-well plates were seeded and incubated at 37° C. for 24 hours before addition of compounds. A series of 9 different concentrations of compound stocks (500×) were prepared by 3-fold serial dilutions in DMSO. […] After 96 hours of incubation, 35 μL or 50 μL of CellTiter Glo reagent (Promega) was added to each well and luminescence was measured after 10 minutes using EnVision (PerkinElmer). Luminescence from cells treated with DMSO alone was set as Max and % of inhibition was calculated as follows: Inhibition %=(Max-Sample value)/Max*100. Data were analyzed using XLfit software (ID Business Solutions Ltd.) or GraphPad software and IC50, relative IC50, and % of top inhibition were calculated.
(§3) The top concentration for the tested PKC activator compound was set at roughly the IC50 when the same testing compound was used as a single agent assayed in the same cell line. The next dose was either 3-fold or 10-fold dilution from the top concentration.

[6] = tested on: HL-60 human promyelocytic leukemia cells; test: Combination viability/proliferation assays
Protocol: as §2, §3

[7] = tested on: THP-1 human acute monocytic leukemia cells; test: Combination viability/proliferation assays; conditions: K101A (0.3 μM) and K102 (0.005 μM)
Protocol: as §2, §3

[8] = tested on: Mino (Mantle cell lymphoma); test: Combination viability/proliferation assays; conditions: Mino; K101A (0.1 μM) or K102 (0.001 μM); especially below 0.1 μM cytarabine
Protocol: as §2
Various drugs or compounds (Table 10) were screened and assayed in 384-well plates as 9-point 3-fold dilution series alone and in combination with 2-3 doses of the specified PKC activator compounds (e.g., K101A, K101E, and K102). The top concentration for the tested PKC activator compound was set at roughly the IC50 when the same testing compound was used as a single agent assayed in the same cell line. The next dose was either 3-fold or 10-fold dilution from the top concentration.
The PKC activating agents (e.g., K101A, K101E, and K102) in combination with other chemotherapeutic agents, including standard chemotherapies and certain chemotherapeutic agents targeting certain cell signaling pathways, were also examined on cancer cells other than lung cancer cells.

## N.N.[Cl][Pt][Cl] [Cisplatin]
[1]; A549, cisplatin combined with PKC activator compounds (FIG. 6A)
  dose range for the strongest synergy: 0.625 to 2.5 µM
[1]; A549, in combination with 0.005 μM K101A, NC: no change
  Ratio ([…] DMSO IC50/combination IC50): 0.53
[1]; A549, in combination with 0.04 μM K102 (footnote, Cisplatin)
  Ratio ([…] DMSO IC50/combination IC50): 2.61
[1]; A549, in combination with 0.05 μM K101A, NC: no change
  Ratio ([…] DMSO IC50/combination IC50): 0.86
[1]; A549, in combination with 0.13 μM K102 (footnote, Cisplatin)
  Ratio ([…] DMSO IC50/combination IC50): 2.52
[1]; A549, in combination with 0.5 μM K101A, ratio >2 synergistic, <0.5 antagonistic, NC: no change
  Ratio ([…] DMSO IC50/combination IC50): 2.68
[1]; A549, in combination with 1 μM K101E (footnote, Cisplatin)
  Ratio ([…] DMSO IC50/combination IC50): 1.37
[1]; A549, in combination with 3 μM K101E (footnote, Cisplatin)
  Ratio ([…] DMSO IC50/combination IC50): 1.75
[1]; A549, with PKC activator compounds
  synergy at cisplatin dose levels higher than […]: minimal synergy
[1]; PKC activator compounds (K101A, K101E, K102)
  effect in combination with the PKC activator compounds in inhibiting the growth of A549 cells: strong synergistic effect
[1]; agent assayed in combination with K101A, A549, * 2-3 concentrations, # full concentration ranges
  Combination in A549: K101A (synergism/antagonism): Synergism (strong)
[1]; agent assayed in combination with K101E, A549
  Combination in A549: K101E (synergism/antagonism): None
[1]; agent assayed in combination with K102, A549, * 2-3 concentrations, # full concentration ranges
  Combination in A549: K102 (synergism/antagonism): Synergism (strong)
[2]; Panc2.13, K101A at 1 μM or at 0.67 μM
  effect in combination with K101A: strong synergy
[2]; agent in combination with K101A
  Combination effect, Panc2.13: K101A: Synergism
[3]; Panc1, with K101A or K102
  effect at highest concentrations of combination agents: Slight antagonism
[3]
  Combination effect, Panel: K102: None
[3]; listed as cisplatin
  Combination effect, Panel: K102: not
[4]; Colo205, in combination with K101A (column not headed)
  synergy volume (MacSynergy): 49
[4]; Colo205, in combination with K102 (column not headed)
  synergy volume (MacSynergy): 41

## CC1=C(/C=C/C(C)=C/C=C/C(C)=C/C(=O)O)C(C)(C)CCC1 [ATRA, all-trans-retinoic acid]
[5]
  shift of the inhibition curve up: 5-20%
[6]
  effect in combination with K101A and K102: strong synergy
[6]; addition of K101A (0.3 μM) or K102 (0.005 μM), after subtracting inhibition by K101A or K102 alone
  shift of the inhibition curve up: 5-40%

## Nc1ccn([C@@H]2O[C@H](CO)[C@@H](O)[C@@H]2O)c(=O)n1 [Cytarabine]
[7]
  effect in combination with K101A and K102: synergy
[8]
  effect in combination with K101A or K102: synergistic anti-proliferative effect
[6]
  effect in combination with K101A and K102: strong synergy
[6]; in combination with K101A (0.3 μM)
  shift of the inhibition curve to the left: half-log
[6]; in combination with K102 (0.005 μM)
  shift of the inhibition curve to the left: full-log
